Assay results: ChEMBL document CHEMBL1131204, “Flavonoid derivatives as adenosine receptor antagonists: a comparison of the hypothetical receptor binding site based on a comparative molecular field analysis model” (J Med Chem, 1998)
Several values for one entry are separate records, joined by “and”; a condition that tells them apart may be missing. Equal values may be shown once.

Legend:
[1] = molecular target: T1, Adenosine receptor A3 (Homo sapiens) (UniProt P0DMS8); assay: Ability to displace [125I]-AB-MECA binding from adenosine A3 receptor.
T1 sequence (whole entry): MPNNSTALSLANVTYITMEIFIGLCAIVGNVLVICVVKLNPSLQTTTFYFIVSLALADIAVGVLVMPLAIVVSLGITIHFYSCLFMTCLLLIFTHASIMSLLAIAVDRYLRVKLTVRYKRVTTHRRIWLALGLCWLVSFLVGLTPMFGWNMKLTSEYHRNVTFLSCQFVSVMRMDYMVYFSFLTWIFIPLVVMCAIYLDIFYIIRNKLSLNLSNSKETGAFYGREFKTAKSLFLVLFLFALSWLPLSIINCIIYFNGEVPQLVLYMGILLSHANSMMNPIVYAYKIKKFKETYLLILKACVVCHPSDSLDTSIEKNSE

[2] = molecular target: T2, Adenosine receptor A1 (Rattus norvegicus) (UniProt P25099); assay: Ability to displace [3H]N6-phenylisopropyladenosine binding from adenosine A1 receptor.
T2 sequence (whole entry): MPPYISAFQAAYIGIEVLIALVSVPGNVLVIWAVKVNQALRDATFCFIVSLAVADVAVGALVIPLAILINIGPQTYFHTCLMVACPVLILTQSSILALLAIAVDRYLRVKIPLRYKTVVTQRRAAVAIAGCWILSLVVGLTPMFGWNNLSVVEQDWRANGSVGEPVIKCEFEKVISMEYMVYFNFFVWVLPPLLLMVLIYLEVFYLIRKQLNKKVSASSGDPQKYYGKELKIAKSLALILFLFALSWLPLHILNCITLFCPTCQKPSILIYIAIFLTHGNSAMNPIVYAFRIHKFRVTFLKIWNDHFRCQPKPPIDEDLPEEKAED

[3] = molecular target: Adenosine receptor A2a (Rattus norvegicus) (UniProt P30543); assay: Ability to displace [3H]-CGS- 21680 binding from adenosine A2A receptor.
Adenosine receptor A2a (Rattus norvegicus), sequence (P30543 whole entry): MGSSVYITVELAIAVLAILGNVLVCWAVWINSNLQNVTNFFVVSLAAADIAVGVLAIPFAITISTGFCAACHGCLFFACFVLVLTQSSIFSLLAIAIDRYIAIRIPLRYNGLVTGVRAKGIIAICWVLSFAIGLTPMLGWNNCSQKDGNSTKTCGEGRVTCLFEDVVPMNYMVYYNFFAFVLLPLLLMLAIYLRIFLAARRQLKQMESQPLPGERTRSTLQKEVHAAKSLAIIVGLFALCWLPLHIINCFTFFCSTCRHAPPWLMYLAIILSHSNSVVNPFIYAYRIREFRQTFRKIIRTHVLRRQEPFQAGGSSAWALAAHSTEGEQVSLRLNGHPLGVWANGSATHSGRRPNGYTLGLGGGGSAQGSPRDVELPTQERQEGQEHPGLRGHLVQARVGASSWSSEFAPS

| Structure (SMILES) | pKi(uM) [1] | pKi(uM) [2] | pKi(uM) [3] |
| --- | --- | --- | --- |
| COc1ccc(-c2oc3cc(OC)cc(OC)c3c(=O)c2OC)cc1 | -0.53 | -0.03 |  |
| COc1cc(O)c2c(c1)OC(c1ccc(O)cc1)CC2=O (stereo unspecified) | -0.53 | -0.91 | -1.55 |
| O=c1cc(-c2ccccc2)oc2ccccc12 | -1.23 | -0.52 | -0.54 |
| CCOc1ccc(-c2oc3cc(OCC)cc(O)c3c(=O)c2OCC)c(OCC)c1 | -0.68 |  |  |
| Cc1ccc(-c2oc3ccc(Cl)cc3c(=O)c2Cl)c(C(C)C)c1 | 0.25 |  |  |
| O=c1cc(-c2ccccc2)oc2cccc(O)c12 |  |  | -0.79 |
| O=c1cc(-c2ccc(O)cc2)oc2cc(O)cc(O)c12 |  | -0.48 | -0.88 |
| CCOc1c2ccoc2cc2oc(/C=C/C=C/c3ccccc3)cc(=O)c12 | -1.66 |  | -2.22 |
| CCOc1cc(O)c2c(=O)c(OCC)c(-c3ccccc3)oc2c1 | 0.13 |  | -1.8 |
| COc1cc(OC)c2c(=O)c(OC)c(-c3cc(OC)c(OC)c(OC)c3)oc2c1 | -0.82 |  |  |
| COc1ccc2c(=O)c(O)c(-c3ccc(O)c(O)c3)oc2c1 | -0.14 |  |  |
| O=c1cc(-c2ccccc2)oc2c1ccc1ccccc12 |  | 0.1 | -0.12 |
| COc1ccc(-c2cc(=O)c3ccc(O)cc3o2)cc1OC |  | -1.27 | -1.54 |
| COC1(OC)Cc2oc(-c3ccc(O)cc3O)c(CC=C(C)C)c(=O)c2C(O)=C1/C=C/C(C)C | -0.66 |  |  |
| CCOc1c(-c2c(C)cc(C)cc2C)oc2ccc(Cl)cc2c1=O | -0.72 |  |  |
| CC(=O)Oc1cc(OC(C)=O)c2c(c1)OC(c1ccccc1)C(OC(C)=O)C2=O (stereo unspecified) |  |  | -1.75 |
| COc1ccc2c(c1)C(=O)C(O)C(/C=C/c1ccccc1)O2 (stereo unspecified) | -1.32 |  |  |
| COc1c2ccoc2cc2oc(C=O)cc(=O)c12 | -1.95 |  |  |
| O=c1c(Cl)c(-c2ccccc2)oc2ccccc12 | -1.06 |  | -1.4 |
| O=C1c2ccccc2OC(c2ccccc2O)C1O (stereo unspecified) |  | -1.96 |  |
| COc1ccc(-c2cc(=O)c3c(OC)c(OC)c(OC)cc3o2)cc1 | -0.65 | -0.11 |  |

| Structure (SMILES) | pKi(uM) [1] | pKi(uM) [2] | pKi(uM) [3] |
| --- | --- | --- | --- |
| O=C1CC(c2ccc(O)cc2)Oc2ccccc21 (stereo unspecified) | -1.36 | -1.06 |  |
| CCOc1c2ccoc2cc2oc(/C=C/c3ccccc3)cc(=O)c12 | -0.06 | -1.55 | -1.53 |
| COc1c2ccoc2cc2oc(C)cc(=O)c12 | -1.78 |  | -1.63 |
| O=c1c(O)c(-c2ccccc2)oc2cc(O)cc(O)c12 | -0.23 |  |  |
| O=c1c(Cl)c(-c2ccccc2)oc2ccc(Cl)cc12 |  |  | -1.74 |
| COc1c2ccoc2cc2oc(/C=C/c3ccccc3)cc(=O)c12 | -0.92 | -1.51 | -1.06 |
| COc1cc2oc(-c3ccc(O)cc3)cc(=O)c2c(O)c1OC | -0.5 | -0.08 | -0.48 |
| O=C1CC(c2ccccc2)Oc2ccccc21 (stereo unspecified) | -1.21 |  |  |
| COc1c(O)cc2oc(-c3ccc(O)cc3)cc(=O)c2c1O |  | -0.21 | -0.88 |
| O=c1c(O)c(-c2ccc(O)c(O)c2)oc2cc(O)cc(O)c12 |  |  | -0.84 |
| COc1cc(OC)c2c(=O)c(OC)c(-c3ccccc3)oc2c1 | 0.08 and -0.09 | 0.29 | -0.81 |
| O=C1CC(c2ccccc2O)Oc2ccccc21 (stereo unspecified) | -0.78 | -0.42 | -1.25 |
| COc1ccc(-c2cc(=O)c3c(O)cc(C)cc3o2)cc1 | -1.7 | -0.53 | -1.45 |
| COc1ccc2c(c1)C(=O)C(O)C(C#Cc1ccccc1)O2 (stereo unspecified) | -0.91 | -1.7 |  |
| CCOc1cc(OCC)c2c(=O)c(OCC)c(-c3ccccc3)oc2c1 | 0.44 | 0.22 | -0.52 |
| COc1ccc2oc(C#Cc3ccccc3)c(O)c(=O)c2c1 | -1.38 |  |  |
| COc1c2ccoc2cc2oc(/C=N/c3ccccc3)cc(=O)c12 | -0.96 |  |  |
| CC(=O)Oc1cc(OC(C)=O)c2c(=O)c(OC(C)=O)c(-c3ccccc3)oc2c1 | -1.24 | -1.06 |  |
| O=c1cc(-c2ccccc2)oc2cc(O)ccc12 |  | -0.48 | -0.43 |
| CCOc1ccc(-c2oc3cc(OCC)cc(OCC)c3c(=O)c2OCC)c(OCC)c1 | -0.86 |  | -1.42 |
| COc1cc(OC)c(-c2oc3ccccc3c(=O)c2O)c(OC)c1 | -1.7 | -0.86 |  |
